From US10765638B2, “Particle formulation with polycation complex” (Yale University, priority 2017, dated 2020)

Assays:
parental PC9 cells = assay: Apoptosis by Annexin V flow cytometry; type: cell-based; details: NGI-1 10 μM, 48 h
Procedure: (§1) Briefly, 1×10^6 cells/sample were collected, washed in PBS, pelleted, and resuspended in incubation buffer (10 mm HEPES/NaOH, pH 7.4, 140 mm NaCl, 2.5 mm CaCl2) containing 1% annexin V and 1% 7-Amino-actinomycin D or propidium iodide, to identify dead cells. […] First-line analysis was performed with Flow Jo software. Approximately 50,000 cells were analyzed per experiment, and the mean value was obtained from 3 independent assays.

PC9-GR cells = assay: Apoptosis by Annexin V flow cytometry; type: cell-based; details: NGI-1 treatment alone
Procedure: as §1

D54 cells = assay: Radiation clonogenic survival assay; type: cell-based
Procedure: (§2) Radiation (XRT) doses of either 0, 2, 4, or 6 Gy were delivered with a Precision X-ray 320-kV orthovoltage unit at a dose rate of 2 Gy/45 seconds (PXI X-Ray Systems). Twenty-four hours following XRT cells were washed, trypsinized, and re-plated in triplicate wells to determine clonogenic survival. […] Growth rates were determined by CellTiter 96 Non-Radioactive Cell Proliferation Assay (Promega; Madison, Wis., USA) according to the manufacturer's directions. For each experiment one thousand cells were seeded in triplicate wells in 96-wells plates. The following day, cell cultures were treated with NGI-1 (1 μM), Temozolomide (TMZ, 10 μM), Etoposide (VP-16, 0.1 μM) or combinations for 5 days. Absorbance at 540 nm was measured using the spectrophotometric reading (BioTek Synergy 2; Winooski, Vt. USA).

U251 cells = assay: Radiation clonogenic survival assay; type: cell-based; details: 10 μM NGI-1
Procedure: as §2

T98G cells = assay: Radiation clonogenic survival assay; type: cell-based; details: 10 μM NGI-1
Procedure: as §2

HCC827-GR cells [1] = assay: Apoptosis by Annexin V flow cytometry; type: cell-based; details: NGI-1 treatment alone
Procedure: First-line analysis was performed with Flow Jo software. Approximately 50,000 cells were analyzed per experiment, and the mean value was obtained from 3 independent assays.

MET, PDGFR and FGFR RTKs = assay: Western blot of MET, PDGFR and FGFR phosphorylation and levels in glioma cells; type: cell-based
Procedure: In this study, the D54, SKMG3, U251, T98G and 42-MG glioma cell lines were used. The source of D54, SKMG3 and U251 cells has been described previously (Contessa at al., Clin Cancer Res., 16:3205-14 (2010), Lopez et al., Int J Radiat Oncol Biol Phys., 69:214-20 (2007)). The 42-MG and T98G cells were provided by Todd Waldman (Georgetown University) and Dr. Ranjit Bindra (Yale University), respectively. The cells were cultured in DMEM/F12 (D54 and T98G), DMEM (42-MG and U251) or RPMI 1640 (SKMG3)+10% FBS supplemented with penicillin and streptomycin (Gibco, Life Technologies, Grand Island, N.Y., US) in a humidified incubator with 5% CO2, and they were kept in culture no more than 6 months after resuscitation from the original stocks. […] Mycoplasma cell culture contamination was routinely checked and ruled out using a biochemical test (MycoAlert Mycoplasma Detection Kit from Lonza, Rockland, Me. USA). Tunicamycin was purchased from Calbiochem/EMD-millipore (Burlington, Mass., USA). Cetuximab and Erlotinib were purchased at Selleck Chemicals LLC (Houston, Tex., USA). Luciferin was supplied by Promega (Madison, Wis. USA). For in vitro experiments, radiation (XRT) was administered at room temperature using a Precision X-ray 320-kV orthovoltage unit at a dose rate of 2 Gy/45 seconds (PXI X-Ray Systems) with 2 mm aluminum filter. For in vivo studies, radiation was administered at room temperature using a Precision X-ray 250-kV orthovoltage unit at a dose rate of 6.42 Gy/min (PXI X-Ray Systems) with 2 mm aluminum filter. Quality Assurance for both irradiators was performed monthly using a P.T.W. 0.3 cm^3 Ionization Chamber calibrated to NIST standards and quarterly dosimetry using thermoluminescent dosimeter (TLD)-based or ferrous sulfate-based dosimeters.

HCC827-GR cells [2] = assay: Confocal microscopy of EGFR and phosphorylated MET localization; type: cell-based; details: detected in control samples
Procedure: For immunofluorescence, HCC827-GR cell lines were grown on glass coverslips to 80% confluence. Cell cultures were washed with PBS and fixed with 4% (w/v) formaldehyde in PBS for 30 min at 37° C. After washing with PBS, cells were permeabilized with 0.1% v/v Triton X-100 in PBS for 10 min, rinsed three times in PBS and treated with 5% w/v bovine serum albumin for 1 h. Cells were then incubated overnight at 4° C. with mouse anti-EGFR pAb (sc-03; Santa Cruz Biotechnology; 1:800) and rabbit anti-MET mAb (Cell Signaling; 1:1,000) primary antibodies and for 1 h at room temperature with either Alexa Fluor 543-conjugated goat anti-rabbit IgG or Alexa Fluor 488-conjugated goat anti-mouse IgG (ThermoFisher Scientific; 1:1,000) secondary antibodies. All antibodies were diluted in PBS containing 5% w/v bovine serum albumin. Nuclei were stained using ToPro3 (Invitrogen). Confocal cellular images were captured with an inverted Zeiss LSM 510 Pascal laser confocal microscope (Carl Zeiss, Jenna, Germany), using a 63/1.4 Plan-Apochromat objective.

[3] = test system: D54, SKMG3, T98G or U251 cells; assay: Glioma cell proliferation (CellTiter 96), NGI-1 alone or with cytotoxic chemotherapy; type: cell-based
Procedure: as §2

SKMG3 cells = assay: Phospho-γH2AX foci formation after radiation; type: cell-based, human; details: 2 hours after 4 Gy, 10 μM NGI-1
Procedure: To determine histone H2AX phosphorylation (γH2AX), cells were cultured on glass cover slips and pre-treated with either vehicle or NGI-1 for 48 hours followed by radiation treatment. Samples were fixed with 4% neutral-buffered formaldehyde, washed (0.1% triton in PBS for 30 minutes) and incubated for 1 hour with protein-blocking solution (PBS containing 10% normal goat-horse serum; Sigma-Aldrich, Saint Louis, Mich., US). Next, the slides were incubated with primary anti-phospho-histone γH2AX S139 (1:500, Millipore-Upstate, Billerica, Mass., US) followed by incubation with secondary antibody Alexa Fluor 555-conjugated goat anti-mouse IgG (1:750, Molecular probes/Invitrogen, Carlsbad, Calif., US), for 1 hour at room temperature. Nuclei were stained using DAPI containing vectashield mounting solution (Vector Labs). Confocal cellular images were captured with an inverted Zeiss LSM 510 Pascal laser confocal microscope (C. Zeiss, Jenna, Germany), using a 63/1.4 plan-apochromat objective. Five randomly selected fields s per slide were analyzed. Cells were counted using the ImageJ program, public domain Java image processing software.

## Cc1cnc(NC(=O)c2cc(S(=O)(=O)N(C)C)ccc2N2CCCC2)s1 [NGI-1, 5-(dimethylsulfamoyl)-N-(5-methyl-1,3-thiazol-2-yl)-2-(pyrrolidin-1-yl)benzamide]
Parental PC9 cells
  induction of apoptosis: does not induce apoptosis
PC9-GR cells
  induction of apoptosis: no pro-apoptotic effect
D54 cells; 10 μM NGI-1
  dose enhancement factor (DEF) at a surviving fraction of 0.4: 1.3
D54 cells; 10 μM NGI-1 48 hours before radiation, 69% without NGI-1
  survival fraction at 2 Gy (SF2Gy): 51%
U251 cells
  effect on SF2Gy: unaffected
T98G cells
  effect on SF2Gy: unaffected
HCC827-GR cells [1]
  induction of apoptosis: not sufficient to induce apoptosis
MET, PDGFR and FGFR RTKs; 42-MG, SKMG3, and T98G cells
  phosphorylation of PDGFR: uniformly reduced
MET, PDGFR and FGFR RTKs; D54, SKMG3, U251, and T98G cells
  phosphorylation of MET: uniformly reduced phosphorylation
MET, PDGFR and FGFR RTKs; glioma cell lines
  FGFR1 levels: increased
  FGFR1 receptor phosphorylation: not accompanied by an increase in receptor phosphorylation
HCC827-GR cells [2]
  EGFR detected near the cell surface: not in NGI-1 treated samples
[3]; D54, SKMG3, U251 and T98G, 5 days of drug exposure
  glioma cell line proliferation, dose response: sensitive
[3]; D54 and SKMG3, NGI-1 1 μM with TMZ 10 μM or VP-16 0.1 μM, 5 days, not synergistic
  proliferation, NGI-1 combined with TMZ or VP-16: further reduced glioma cell proliferation
[3]; T98G or U251 cells, NGI-1 1 μM, 5 days
  enhancement of the anti-proliferative effects of TMZ or VP-16: did not enhance
SKMG3 cells
  increase of phospho-γH2AX foci formation compared to radiation alone (factor): 1.2
